One series has as its target T1, human CRF1 receptor (Homo sapiens, UniProt P34998).
T1 construct: expressed in transfected cells; host or cells: CHO cells (membrane fraction)
T1 sequence (P34998 24-415): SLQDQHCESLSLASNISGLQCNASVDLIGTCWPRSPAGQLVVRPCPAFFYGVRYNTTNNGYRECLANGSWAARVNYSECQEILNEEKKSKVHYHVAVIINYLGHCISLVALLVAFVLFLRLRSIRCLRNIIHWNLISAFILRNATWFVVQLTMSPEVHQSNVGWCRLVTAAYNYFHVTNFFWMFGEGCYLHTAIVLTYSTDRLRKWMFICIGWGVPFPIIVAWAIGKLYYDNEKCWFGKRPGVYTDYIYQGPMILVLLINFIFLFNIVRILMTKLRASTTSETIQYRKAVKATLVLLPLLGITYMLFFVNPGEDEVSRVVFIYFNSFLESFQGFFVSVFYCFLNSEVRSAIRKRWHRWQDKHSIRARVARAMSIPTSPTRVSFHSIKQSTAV
Nature of the series: Measurement of CRF Binding Inhibitory Rate (receptor binding experiment with 125I-CRF). The settings on record: human CRF1 receptor expressing CHO cellular membrane fraction, 50 pM 125I-CRF, room temperature 1.5 hr, 0.05 nM to 10 μM of compound; read-out: IC50 values (CRF binding inhibition).

Some results are limits rather than exact numbers.

`CCCC(OC)c1ccc(Cl)c2nc3n(c12)CCCN3c1c(C)cc(Cl)cc1Cl` (stereo not drawn) [Example 141, 9-Chloro-1-(2,4-dichloro-6-methylphenyl)-6-(1-methoxybutyl)-1,2,3,4-tetrahydropyrimido[1,2-a]benzimidazole]: the melting point (as a rule, the temperature, or range, at which the solid turns liquid) was in the range of 151 to 152 °C. Besides, at human CRF1 receptor, the IC50 (as a rule, the midpoint of a concentration-inhibition curve) was less than 1000 nM.

The compound `CCN(CC)c1cccc2nc3n(c12)CC(F)(F)CN3c1ccc(Cl)cc1Cl` [Example 231, 1-(2,4-Dichlorophenyl)-N,N-diethyl-3,3-difluoro-1,2,3,4-tetrahydropyrimido[1,2-a]benzimidazol-6-amine] registered a melting point of 125 to 127 °C. Moreover, at human CRF1 receptor, the IC50 was less than 1000 nM.

In turn, `CCC(CC)c1ccc(Cl)c2nc3n(c12)CCCCN3c1cnc(N(C)C)cc1C` [Example 25, 5-[10-Chloro-7-(1-ethylpropyl)-2,3,4,5-tetrahydro-1H-[1,3]diazepino[1,2-a]benzimidazol-1-yl]-N,N,4-trimethylpyridin-2-amine] gave a melting point of 156 to 157 °C. Further, the IC50 on human CRF1 receptor is less than 1000 nM.

Regarding `CCC(OC(=O)COC)c1ccc(Cl)c2nc3n(c12)CCCN3c1ccc(Cl)cc1Cl` (stereo not drawn) [Example 432, 1-[9-Chloro-1-(2,4-dichlorophenyl)-1,2,3,4-tetrahydropyrimido[1,2-a]benzimidazol-6-yl]propyl methoxyacetate], the melting point fell in the range of 156 to 158 °C. In addition, on human CRF1 receptor, the IC50 is less than 1000 nM.

As to `Cc1nc(N2CCCC2)ccc1N1CCCn2c1nc1c(Cl)ccc(C(OC(F)F)C(F)(F)F)c12` (stereo not drawn) [Example 294, 9-Chloro-6-[1-(difluoromethoxy)-2,2,2-trifluoroethyl]-1(2-methyl-6-pyrrolidin-1-ylpyridin-3-yl)-1,2,3,4-tetrahydropyrimido[1,2-a]benzimidazole], the melting point was in the range of 233 to 236 °C.

On to `COc1nc(C)c(N2CCCn3c2nc2c(Br)ccc(C(OC(F)F)C(F)(F)F)c23)c(C)n1` (stereo not drawn) [Example 519, 9-Bromo-6-[1-(difluoromethoxy)-2,2,2-trifluoroethyl]-1-(2-methoxy-4,6-dimethylpyrimidin-5-yl)-1,2,3,4-tetrahydropyrimido[1,2-a]benzimidazole], for which the melting point lay within 211 to 213 °C.

As to `COc1nc(C)c(N2CCCn3c2nc2c(Cl)ccc(C(NC(=O)C(F)F)C(F)(F)F)c23)c(C)n1` (stereo not drawn) [Example 190, N-{1-[9-Chloro-1-(2-methoxy-4,6-dimethylpyrimidin-5-yl)-1,2,3,4-tetrahydropyrimido[1,2-a]benzimidazol-6-yl]-2,2,2-trifluoroethyl}-2,2-difluoroacetamide], the melting point was 155 to 156 °C.

The compound `CCC(NC(=O)C1CC1)c1ccc(Cl)c2nc3n(c12)CCCN3c1ccc(Cl)cc1Cl` (stereo not drawn) [Example 441, N-{1-[9-Chloro-1-(2,4-dichlorophenyl)-1,2,3,4-tetrahydropyrimido[1,2-a]benzimidazol-6-yl]propyl}cyclopropanecarboxamide] registered a melting point of 251 to 253 °C.

`NC(=O)c1cccc2nc3n(c12)CCCN3c1ccc(Cl)cc1Cl` [Example 83, 1-(2,4-Dichlorophenyl)-1,2,3,4-tetrahydropyrimido[1,2-a]benzimidazole-6-carboxamide]: the melting point was in the range of 198 to 200 °C.

`O=C1CCCN1c1ccc(Cl)c2nc3n(c12)CCCN3c1ccc(Cl)cc1Cl` [Example 195, 1-[9-Chloro-1-(2,4-dichlorophenyl)-1,2,3,4-tetrahydropyrimido[1,2-a]benzimidazol-6-yl]pyrrolidin-2-one] gave a melting point of 215 to 216 °C.

Compound `OC1CN(Cc2cccc3nc4n(c23)CCCN4c2ccc(Cl)cc2Cl)C1` [Example 91, 1-{[1-(2,4-Dichlorophenyl)-1,2,3,4-tetrahydropyrimido[1,2-a]benzimidazol-6-yl]methyl}azetidin-3-ol] registered a melting point of 240 to 241 °C.

(Values after patent US8785460B2, “Tricyclic compounds and use thereof” (Takeda Pharmaceutical Company Limited, priority 2008, dated 2014).)
